Measurements from patent publication US9260481B2, “Peptide derivatives as antibiotics” (priority 2011, dated 2016).
Converted amounts (≈) assume the structure as drawn. Read-outs that look alike come from different tables or passages of the source. Numbered stars: 1 amine (or outer) side, 2 acyl side, 3 side chain; on linkers, the order of the positions; unused ones are H or OH. Square brackets hold non-standard residues; d marks the D form. Peptide text beside a SMILES is read from it. * marks the point of attachment. ξ: configuration not given here. X1 = NCC(O)CCC(N[*:1])C(=O)[*:2]; ΔZArg = N=C(N)NCC/C=C(\N)C(=O)O; ξDab(3-OH) = NCC(O)C(N)C(=O)O; Orn = NCCC[CH](N)C(=O)O; NH(CH2)4NH2 = NCCCCN*

Tests used:
[1] = system: Bacteroides fragilis; assay: microbe, parasite or virus in culture; details: Bacteroides fragilis, ATCC25238
Method: (§1) The minimal inhibitory concentrations (MIC) were determined according to the Clinical and Laboratory Standards Institute (CLSI) conditions guidelines detailed in Table 7. Assays were performed in triplicate.
(§2) Preparation of Inocula. Five to 10 well-isolated colonies were picked and resuspended in 3 ml sterile saline. The inoculum was re-suspended by vigorous shaking on a vortex mixer for 15 s. Turbidity was adjusted to McFarland standard 0.5 ([…]). The inoculum was further diluted in the appropriate media (Table 7) to give a final inoculum in each well of ˜2-8×10^5 CFU/ml.
(§3) Addition of Test Article. Stock solutions of Odilomycin A or comparator were diluted in the appropriate media to give a maximum starting concentration of 50 μg/mL in the assay. 50 μL of medium was dispensed into each well in columns two to 12 of a 96 well plate. 100 μL of the appropriate test compound solution (100 μg/mL) was dispensed into each well in column one. In the case of M. catarrhalis, M. haemolytica and P. multocida these values were doubled (a final assay volume of 200 μL was used). […] Columns 11 and 12 served as positive (no drug or test article, inoculum added), and negative (no drug, test article, or inoculum added) growth controls respectively.
(§4) Addition of Bacterial Strains. 50 μL of each inoculum suspension was added to the appropriate wells, resulting in a final volume of 100 μL consisting of 50 μL diluted compound or diluents, and 50 μL of inoculum or broth alone.

[2] = system: S. aureus ATCC 13709; format: cell-based, Staphylococcus aureus; details: ATCC 13709, 24 h
Method: (§5) Minimal bactericidal concentrations (MBCs) were established by extending the MIC procedure to the evaluation of bactericidal activity. After 24 hours, 10 μL were drawn from the wells, serially diluted and then spotted onto suitable agar plates. The plates were incubated at 37° C. overnight. […] All the experiments were done in triplicate.

[3] = system: P. aeruginosa ATCC 27853; format: cell-based, Pseudomonas aeruginosa; details: ATCC 27853, 24 h
Method: as §5

[4] = Cytotoxicity test (MTS); format: cell-based; details: human; for CC50 at 72 h: MTS; for viability at 72 h: dose of up to 100 μg/mL, read-out: cell viability
Method: The cytotoxicity of the Odilomycins A-C was investigated against Human colon adenocarcinoma (HT29) cells and Human normal lung fibroblasts (MRC-5) cells. 200 μL of the cell suspension of HT29 (human colorectal adenocarcinoma) prepared in RPMI 1640+1% L-Glutamine supplemented with 10% (v/v) fetal calf serum and 200 μL of the cell suspension of MRC5 (human lung fibroblast) prepared in Dulbecco's modified Eagle's medium supplemented with 25 mM glucose and 10% (v/v) fetal calf serum were inoculated into 96-well plates.
The inoculating cell number was 800 cells per well for HT29 and 2100 cells per well for MRC-5. The microplates were incubated at 37° C. for 24 h with 5% of CO2.
Twenty four hours later, Odilomycin A, B or C dissolved in water were added for 72 h at a final concentration from 0.78 μg/mL to 100 μg/mL in a fixed volume of water (1% final concentration). […] Experiments were done in triplicate.

[5] = system: Pseudomonas aeruginosa
Method: as §1, §2, §3, §4

[6] = HT29 colon adenocarcinoma cells
[7] = MRC-5 normal lung fibroblasts, MRC-5 cells

Cc1ncc([N+](=O)[O-])n1CCO [metronidazole, reference compound]
MIC [1]: 0.39 µg/mL (≈ 2.28 µM)

N=C(N)NCC/C=C(\NC(=O)C(CCCCN)NC(=O)C(Cc1cnc[nH]1)NC(=O)C1CCCN1C(=O)C(CCCN)NC(=O)CNC(=O)C(NC(=O)C(NC(=O)C(N)CCCCN)C(O)CN)C(O)CN)C(=O)NC(CCC(O)CN)C(=O)NCCCCN (stereo not drawn) [Odilomycin B, Lys-(3-hydroxy-2,4-diaminobutanoic acid)-(3-hydroxy-2,4-diaminobutanoic acid)-Gly-Ornithine-Pro-His-Lys-(2,3-dehydroarginine)-(5-hydroxylysine)-(1,4-diaminobutane)] (H-K[ξDab(3-OH)][ξDab(3-OH)]G[Orn]PHK[ΔZArg][X1]-{NH(CH2)4NH2}; configuration not given here)
MBC [2]: 0.78 µg/mL (≈ 0.609 µM) | MBC [3]: 3.12 µg/mL (≈ 2.44 µM) | CC50 at 72 h [4, 6]: > 100 µg/mL | viability at 72 h [4, 6]: 100% | CC50 at 72 h [4, 7]: > 100 µg/mL | viability at 72 h [4, 7]: 100%

N=C(N)NCC/C=C(\NC(=O)C(CCCCN)NC(=O)C(Cc1cnc[nH]1)NC(=O)C1CCCN1C(=O)C(CCCN)NC(=O)CNC(=O)C(NC(=O)C(NC(=O)C(N)CCCCN)C(O)CN)C(O)CN)C(=O)NC(CCCCN)C(=O)NCCCCN (stereo not drawn) [Odilomycin C, Lys-(3-hydroxy-2,4-diaminobutanoic acid)-(3-hydroxy-2,4-diaminobutanoic acid)-Gly-Ornithine-Pro-His-Lys-(2,3-dehydroarginine)-Lys-(1,4-diaminobutane)] (H-K[ξDab(3-OH)][ξDab(3-OH)]G[Orn]PHK[ΔZArg]K-{NH(CH2)4NH2}; configuration not given here)
MIC [5]: 6.25 µg/mL (≈ 4.94 µM) | MBC [2]: 1.56 µg/mL (≈ 1.23 µM) | MBC [3]: 12.5 µg/mL (≈ 9.88 µM) | CC50 at 72 h [4, 6]: > 100 µg/mL | viability at 72 h [4, 6]: 100% | CC50 at 72 h [4, 7]: > 100 µg/mL | viability at 72 h [4, 7]: 100%
